Among the test systems are SR; A549; TK-10; OVCAR-4; MDA-MB-435; HL-60; SF-539; NCI-H23; CAKI-1; SNB-19; HCT-116; PC-3; U-251; A498; KM12; Malme-3M; NCI/ADR-RES; K562; NCI-H460; OVCAR-8.
Holding throughout (experiment): DTP human tumour cell line panel, 48 h

In general, GI50 refers to the concentration at which growth is held to half of that of the control.

SMILES strings stand for the structures.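 Method: 48-hour compound exposure of cells in 96-well plates, five concentrations, linear interpolation of endpoints. GI50: concentration for 50% inhibition of growth.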 Calls of active or inactive are those of the source. No stated cut-off is given here; in the data, active = GI50 up to about 1.1 µM and inactive = higher.

`Cc1ccc(S(=O)(=O)N2C[C@@H]3CC[C@]4(CO[Si](C)(C)C(C)(C)C)N[C@@H](c5ccccc5)[C@H]2[C@H]34)cc1`: the GI50 is 16.2 µM (inactive) in the test on SR; 22.4 µM (inactive) with A549; 38.5 µM (inactive) in the test on TK-10; 26.5 µM (inactive) with OVCAR-4; 39.2 µM (inactive) with MDA-MB-435; 12.7 µM (inactive) in the test with HL-60. The GI50 in the test with SF-539 was 32.4 µM (inactive); in the test with NCI-H23 it was 11.4 µM (inactive); with CAKI-1, 27.2 µM (inactive); in the test on SNB-19, 61.4 µM (inactive); in the test with HCT-116 it was 12 µM (inactive); in the test with PC-3, 18.2 µM (inactive). The GI50 in the test with U-251 is 46.5 µM (inactive); in the test on A498, 48.8 µM (inactive); in the test on KM12 it was 26.5 µM (inactive); in the test with Malme-3M, 18.6 µM (inactive); with NCI/ADR-RES it was 25.9 µM (inactive); in the test with K562 it was 9.02 µM (inactive). Further, the GI50 is 26.1 µM (inactive) with NCI-H460 and 39.7 µM (inactive) in the test with OVCAR-8.
As to `CN1N=C(N)c2cn(C3OC(COP(=O)(O)O)C(O)C3O)c3ncnc1c23` (stereo not given), the GI50 in the test with SR is 10.8 µM (inactive); in the test on A549 it was 39.7 µM (inactive); in the test on TK-10 it was 2.88 µM (inactive); with OVCAR-4, 5.86 µM (inactive); in the test with MDA-MB-435, 34.3 µM (inactive); in the test on HL-60, 1.65 µM (inactive). The GI50 in the test on SF-539 was 32.4 µM (inactive); with NCI-H23, 25.9 µM (inactive); in the test with CAKI-1 it was 1.18 µM (inactive); in the test with SNB-19, 53.3 µM (inactive); in the test on HCT-116 it was 41.8 µM (inactive); in the test on PC-3, 0.836 µM (active). Further, the GI50 was 379 µM (inactive) in the test on U-251; 33.7 µM (inactive) in the test with A498; 2980 µM (inactive) in the test on KM12; 136 µM (inactive) in the test on Malme-3M; 4.08 µM (inactive) with NCI/ADR-RES; 385 µM (inactive) in the test on K562. Moreover, the GI50 in the test with NCI-H460 is 52.8 µM (inactive); in the test on OVCAR-8, 1.28 µM (inactive).
`CN(C)c1cccc(NC2=NCCO2)c1`: the GI50 in the test with SR is 30.3 µM (inactive); in the test with A549 it was > 100 µM (inactive); with TK-10, > 100 µM (inactive); with OVCAR-4, > 100 µM (inactive); in the test on MDA-MB-435 it was 19.8 µM (inactive); with HL-60 it was 23.1 µM (inactive). Moreover, the GI50 with SF-539 is 46.6 µM (inactive); with NCI-H23, 23.6 µM (inactive); in the test on CAKI-1 it was > 100 µM (inactive); with SNB-19, 52.8 µM (inactive); with HCT-116, 35.9 µM (inactive); with PC-3, 31 µM (inactive). The GI50 with U-251 is 83.8 µM (inactive); in the test with A498, 74.5 µM (inactive); in the test with KM12, 40.5 µM (inactive); in the test on Malme-3M it was 33.9 µM (inactive); in the test with NCI/ADR-RES it was 39.7 µM (inactive); with K562, 30.8 µM (inactive). For the same molecule, the GI50 is 32.4 µM (inactive) in the test with NCI-H460 and 66.8 µM (inactive) in the test with OVCAR-8.
Take `Cn1cnc([N+](=O)[O-])c1Sc1nc(N)nc2c1ncn2[C@H]1C[C@H](O)[C@@H](CO)O1`: the GI50 was 1.07 µM (active) in the test with SR; 4.63 µM (inactive) with A549; 3.98 µM (inactive) in the test on TK-10; 2.99 µM (inactive) in the test with OVCAR-4; 2.29 µM (inactive) with MDA-MB-435; 4.86 µM (inactive) with HL-60. In addition, the GI50 in the test with SF-539 is 10.2 µM (inactive); in the test with NCI-H23, 3.91 µM (inactive); in the test with CAKI-1 it was 4.05 µM (inactive); in the test on SNB-19, 62.1 µM (inactive); with HCT-116, 2.86 µM (inactive); in the test on PC-3, 6.84 µM (inactive). In addition, the GI50 with U-251 was 12 µM (inactive); in the test on A498, 5.42 µM (inactive); in the test on KM12, 2.77 µM (inactive); with Malme-3M, 5.26 µM (inactive); with NCI/ADR-RES it was 1.28 µM (inactive); in the test with K562, 2.71 µM (inactive). Also, the concentration for 50% growth inhibition (GI50) was 1.03 µM (active) in the test with NCI-H460 and 2.51 µM (inactive) in the test on OVCAR-8.
In the case of `CCNc1cc2c3c(c1)CCCN3CCC2`, the GI50 is 4.22 µM (inactive) with SR; 17.9 µM (inactive) in the test on A549; 31.8 µM (inactive) in the test on TK-10; 13 µM (inactive) with OVCAR-4; 3.44 µM (inactive) in the test on MDA-MB-435; 11.8 µM (inactive) in the test with HL-60. The GI50 in the test on SF-539 was 20.9 µM (inactive); in the test with NCI-H23, 6.31 µM (inactive); in the test on CAKI-1 it was 31.6 µM (inactive); with SNB-19, 16 µM (inactive); in the test on HCT-116, 6.67 µM (inactive); with PC-3 it was 16.7 µM (inactive). In addition, the GI50 was 12.3 µM (inactive) with U-251; 23.3 µM (inactive) in the test with A498; 15.7 µM (inactive) in the test on KM12; 19.3 µM (inactive) in the test on Malme-3M; 21 µM (inactive) in the test on NCI/ADR-RES; 4.01 µM (inactive) in the test with K562. For the same molecule, the GI50 was 15.1 µM (inactive) in the test with NCI-H460 and 21.2 µM (inactive) in the test with OVCAR-8.
Consider `c1ccc2c(c1)N=c1cc3c(cc1N2)=NC12CCCCC1CC1=C(CCCC1)N32` (stereo not given), for which the GI50 with SR is 0.425 µM (active); in the test with A549, 3.61 µM (inactive); in the test with TK-10, 5.02 µM (inactive); in the test on OVCAR-4, 2.15 µM (inactive); in the test with MDA-MB-435 it was 1.88 µM (inactive); in the test on HL-60 it was 3.04 µM (inactive). The GI50 in the test on SF-539 is 3.4 µM (inactive); with NCI-H23, 4.56 µM (inactive); with CAKI-1 it was 6.58 µM (inactive); in the test on SNB-19, 5.25 µM (inactive); in the test with HCT-116, 3.24 µM (inactive); with PC-3 it was 2.76 µM (inactive). Further, the GI50 is 5.16 µM (inactive) with U-251; 6.52 µM (inactive) with A498; 2.37 µM (inactive) in the test with KM12; 2.17 µM (inactive) in the test on Malme-3M; 4.57 µM (inactive) in the test on NCI/ADR-RES; 2.2 µM (inactive) in the test with K562. Besides, the values for the GI50 with NCI-H460 and with OVCAR-8 were 6.17 µM (inactive) and 3.21 µM (inactive), respectively.
For `COc1ccc(N2CN3OC(=O)N(c4ccc(OC)cc4)[C@@]3(c3ccccc3)C2)cc1`, the GI50 in the test on SR is 2.79 µM (inactive); in the test on A549 it was 29 µM (inactive); with TK-10, 30.8 µM (inactive); in the test on OVCAR-4, 20.3 µM (inactive); in the test on MDA-MB-435 it was 2.4 µM (inactive); in the test with HL-60, 2.77 µM (inactive). Besides, the GI50 is 17 µM (inactive) in the test on SF-539; 23.6 µM (inactive) in the test with NCI-H23; 19.1 µM (inactive) in the test on CAKI-1; 44 µM (inactive) with SNB-19; 18.7 µM (inactive) with HCT-116; 10.8 µM (inactive) with PC-3. Besides, the GI50 in the test with U-251 was 11.9 µM (inactive); with A498 it was 19.5 µM (inactive); in the test on KM12 it was 6.46 µM (inactive); with Malme-3M it was 10.8 µM (inactive); in the test on NCI/ADR-RES it was 9.48 µM (inactive); in the test on K562, 4.02 µM (inactive). Further, the results for the GI50 with NCI-H460 and in the test on OVCAR-8 were 16.6 µM (inactive) and 33.3 µM (inactive), respectively.
As to `N=C(N)NCC1CCCCCCN1` (stereo not given), the GI50 with SR, in the test on A549, in the test on TK-10, in the test on OVCAR-4, in the test with MDA-MB-435 and with HL-60 was > 100 µM (inactive) throughout. Besides, the GI50 in the test with SF-539, in the test with NCI-H23, in the test on CAKI-1, in the test on SNB-19, in the test on HCT-116 and in the test with PC-3 was > 100 µM (inactive) throughout. In addition, the GI50 in the test with U-251, in the test on A498, with KM12, in the test on Malme-3M, in the test on NCI/ADR-RES and in the test on K562 was > 100 µM (inactive) each time. Moreover, the GI50 in the test on NCI-H460 and in the test on OVCAR-8 was > 100 µM (inactive) each time.
For the molecule `COc1ccc(-n2c3c(c4cc(O)ccc42)C(=O)c2ccccc2C3=O)cc1`, the GI50 in the test on SR is 10.4 µM (inactive); with A549, 11.7 µM (inactive); in the test with TK-10, 8.55 µM (inactive); in the test on OVCAR-4, 17.4 µM (inactive); in the test on MDA-MB-435 it was 13.8 µM (inactive); in the test with HL-60, 15 µM (inactive). The GI50 in the test with SF-539 is 1.05 µM (active); in the test with NCI-H23, 8.97 µM (inactive); in the test on CAKI-1, 95.7 µM (inactive); with SNB-19, 6.65 µM (inactive); in the test with HCT-116, 0.305 µM (active); in the test on PC-3, 5.32 µM (inactive). The 50% growth inhibitory concentration (GI50) with U-251 is 0.931 µM (active); with A498 it was 3.93 µM (inactive); with KM12, 2.13 µM (inactive); in the test with Malme-3M, 36.2 µM (inactive); in the test on NCI/ADR-RES, 4.61 µM (inactive); with K562, 30.7 µM (inactive). The GI50 with NCI-H460 was 3.97 µM (inactive); in the test on OVCAR-8 it was 2.52 µM (inactive).
As for `CC1OC(=O)C2CC3CCCCC3C(/C=C/C3CCCC(C)N3C)C12` (stereo not given), the GI50 with SR, with A549, with TK-10, in the test on OVCAR-4, in the test on MDA-MB-435 and in the test with HL-60 was > 100 µM (inactive) each time. The GI50 in the test with SF-539, in the test on NCI-H23, in the test with CAKI-1, with SNB-19, with HCT-116 and in the test on PC-3 was > 100 µM (inactive) throughout. Also, the GI50 with U-251, in the test with A498, with KM12, with Malme-3M, in the test on NCI/ADR-RES and in the test with K562 was > 100 µM (inactive) throughout. The GI50 with NCI-H460 and in the test with OVCAR-8 was > 100 µM (inactive) in each case.

Values taken from ChEMBL document CHEMBL1201862, “PubChem BioAssay data set” (2004).
